Values quoted from earlier work in patent US20050065125A1, “2-alkylidene-19-nor-vitamin D derivatives for the treatment of osteopenia or male osteoporosis” (Pfizer Inc, priority 2003, published 2005).

Conditions: chronic mode, 7 days, rats

SMILES: C=C1[C@H](O)CC(=C/C=C2\CCC[C@]3(C)[C@@H]([C@H](C)CCCC(C)(C)O)CC[C@@H]23)C[C@H]1O [2-Methylene-19-Nor-1,25-(OH)2D3, 1α,25-dihydroxy-2-methylene-19-nor-vitamin D3]
- Bone calcium mobilization (serum calcium) activity relative to the native hormone 1,25-(OH)2D3: 10-100 times

SMILES: C=C1[C@H](O)CC(=C/C=C2\CCC[C@]3(C)[C@@H]([C@@H](C)CCCC(C)(C)O)CC[C@@H]23)C[C@H]1O [2-Methylene-19-Nor-20S-1,25-(OH)2D3, (20S)-1α,25-dihydroxy-2-methylene-19-nor-vitamin D3]
- Bone calcium mobilization (serum calcium) activity relative to the native hormone 1,25-(OH)2D3: at least 10 times
